One compound from US20080131432A1, “Method of treating the chemotoxic effects of chemotherapeutic drugs on brain tissue” (University of Kentucky Research Foundation, priority 2005, published 2008) can be followed below.

Holding throughout (format): in vivo, mouse
The test system of one data set is MnSOD, CuZnSOD. Nature of the data set: MnSOD and CuZnSOD protein levels in brain homogenates (western blot). To be noted: wild-type and iNOSKO mice, 3 hours after ADR 20 mg/kg. Background: In western blotting, separated proteins are transferred to a membrane and probed.
For data set [1], the system named is p53, Bax, Bcl-xS, Bcl-xL, MnSOD in mitochondria. The data set is described as follows: Immunoblots of pro- and anti-apoptotic proteins in brain mitochondria. As for the experimental part:
Perfused brain homogenates and isolated mitochondrial proteins were size-separated via 12.5% denaturing polyacrylamide gel electrophoresis (SDS-PAGE) and transferred to a nitrocellulose membrane. The membrane was blocked for 1 hour at room temperature in blocking solution consisting of 5% non-fat dried milk, 0.5% Tween-20 and Tris-buffered saline (TBST), pH 7.9. After blocking, the membrane was incubated overnight at 4° C. with primary antibodies against TNF α (Upstate, Lake Placid, N.Y.) and β-actin (Sigma, St. Louis, […].) in homogenate samples, or isolated mitochondria samples for p53 (Ab-11, Oncogene Research, Cambridge, Mass.), Bcl-xS/L (S-18), Bax (P-19) (Santa Cruz Biotechnology, Santa Cruz, Calif.), MnSOD (Upstate, Lake Placid, N.Y.), and glyceraldehyde-3-phosphate dehydrogenase (G-3-PDH, Trevigen, Gaithersburg, Md.) in blocking solution. The membrane was washed twice in TBST and incubated for 1 hour with horseradish peroxidase-conjugated secondary antibodies in blocking solution. After incubation with secondary antibodies, the membrane was washed twice with TBST and once in TBS (TBS without 0.5% Tween-20). Immunoreactivities of the protein bands were detected by enhanced chemiluminescence autoradiography (ECL, Amersham Phamacia Biotech, Arlington Heights, Ill.) as described by the manufacturer.
The final protein concentration was 20-40 mg/ml.

A further data set relates to p53 and Bcl-xL complex. The data set is described as follows: Co-immunoprecipitation of p53 with Bcl-xL in brain mitochondria. The conditions noted are these: after ADR, vs saline control; hydrochloride. Here is the method: Isolated mitochondrial protein (500 μg) was resuspended in 500 μL RIPA buffer (9.1 mM Na2HPO4, 1.7 mM NaH2PO4, 150 mM NaCl, 0.5% sodium deoxycholate, 1% v/v Nonidet P40, 0.1% sodium dodecyl sulfate, pH 7.2). Protease inhibitors (0.1 mg PMSF and 1 μg aprotinin per mL RIPA) were added at the time of use followed by incubation with 5 μg/mL of mouse p53 antibody (Ab-11, Oncogene) at 4° C. overnight. Protein A/G-Agarose (50 μL) was added to the reaction mixture with the antibody. Immunocomplexes were collected by centrifugation at 1,000×g at 4° C. for 5 minutes, then washed four times with RIPA buffer. Immunoprecipitated samples were recovered by resuspending in 2×sample loading buffer, and p53 or Bcl-xL (Santa Cruz Biotechnology, Santa Cruz, Calif.) proteins were detected by Western blot. Immunoreactivity was evaluated on immunoblots by densitrometric analysis using a Bio-RAD densitometer (Bio-RAD Laboratory, Inc, Hercules, Calif., USA).

The test system of data set [2] is cortical and hippocampal cells. The data set is described as follows: TUNEL-positive apoptotic cell death in cortical and hippocampal regions. To be noted: 3 and 72 hours after ADR, vs saline. As for the experimental part: (A) Brain cryosection tissues were treated with biotinylated rTdT, followed by streptavidin peroxidase and diaminobenzidine-hydrogen peroxide, and counterstained with methyl-green. […] (For interpretation of the references to colour in this figure legend, the reader is referred to the web version of this article.)

The test system of data set [3] is TNF α. Nature of the data set: Immunofluorescence of TNF α localization in neurons of cortex and hippocampus (MAP2 co-staining). To be noted: 3 hours after 20 mg/kg ADR, vs saline; hydrochloride. As for the experimental part: Brain tissue slices were fixed in 4% paraformaldehyde for 15 minutes, air dried, and washed with PBS. Non-specific proteins were blocked in blocking serum, consisting of 3% normal donkey's serum, and 0.3% Triton x-100 in PBS, and incubated at room temperature for 30 minutes. After blocking, slices were incubated with primary anti-TNF α (Upstate, Lake Placid, N.Y.), and anti-MAP2 antibody (Chemicon, Temecula, Calif.) was used as a neuronal marker, in order to study the location of TNF α in neurons of cortical and hippocampal regions. The sections were kept in a humidified box at 4° C. overnight. Tissues were washed three times with PBS and then were incubated for 1 hour with donkey antibody-conjugated secondary antibodies coated with fluorescent dyes. Excess secondary antibodies were removed by washing three times in PBS and once with deionized H2O. Tissue slides were mounted with mounting medium (Vectashield, HOURS-100, Vector Laboratories, Burlingame, Calif.). Photomicrographs were obtained using a Leica confocal fluorescence microscope (Leica Microsystems Inc., Bannockburn, Ill., USA).

Data set [4] deals with TNF α. Nature of the data set: TNF α levels in brain tissue homogenates (Western blot). The conditions noted are these: 3 hours after single dose, vs saline control. As for the experimental part: Brains perfused with PBS were isolated and dissected from four groups of mice 3 hours post injection of a single dose of ADR, anti-TNF α antibody, anti-TNF α antibody immediately followed by ADR, or saline treated mice. Brain was isolated and placed in 0.1 M PBS, pH 7.4 containing protease inhibitors, 4 μg leupeptin, 4 μg pepstatin, and 5 μg aprotinin, washed and minced in ice-cold PBS containing protease inhibitors. […] Protein concentration of brain homogenate was determined by the Bradford assay (Bradford, 1976).
Perfused brain homogenates and isolated mitochondrial proteins were size-separated via 12.5% denaturing polyacrylamide gel electrophoresis (SDS-PAGE) and transferred to a nitrocellulose membrane. The membrane was blocked for 1 hour at room temperature in blocking solution consisting of 5% non-fat dried milk, 0.5% Tween-20 and Tris-buffered saline (TBST), pH 7.9. […] Immunoreactivities of the protein bands were detected by enhanced chemiluminescence autoradiography (ECL, Amersham Phamacia Biotech, Arlington Heights, Ill.) as described by the manufacturer.

The next data set relates to MnSOD. Nature of the data set: Nitration of MnSOD (immunoprecipitation and western blot). To be noted: hydrochloride. As for the experimental part:
Solubilized isolated mitochondrial proteins (500 μg) in 500 μL RIPA buffer (9.1 mM Na2HPO4, 1.7 mM NaH2PO4, 150 mM NaCl, 0.5% sodium deoxycholate, 1% v/v Nonidet P40, 0.1% SDS, pH 7.2) were incubated for 16 hours at 4° C. with 10 μg/mL anti-nitrotyrosine antibody (Cayman Chemical, Ann Arbor, Mich., USA) or polyclonal anti-MnSOD antibody (Upstate Biotechnology). Immune complexes were precipitated with 50 μL protein A/G-Agarose. Immunocomplexes were collected by centrifugation at 1500 g for 5 minutes at 4° C., and then washed four times with RIPA buffer. Immunoprecipitated samples were recovered by resuspending in 50 μL 2×sample loading buffer, heated to 95° C. for 5 minutes, and immediately fractionated by reducing SDS-PAGE in 12.5% gels. […] Immunoreactivities of the MnSOD nitrated protein bands were detected by ECL (Amersham Phamacia Biotech) as described by the manufacturer. Nitration of MnSOD was quantified using an akaline phosphatase-linked secondary antibody (Sigma), as described previously (Sultana et al. 2004), and evaluated by densitometric analysis used a Bio-Rad densitometer (Bio-Rad Laboratories, Hercules, Calif., USA).

The mark [5] stands for this setting: after ADR 20 mg/kg, 3-72 hours, vs saline, hydrochloride.
[6] abbreviates: after ADR, any time point studied.

The structures appear in SMILES notation. Entries after “also recorded” stand apart in the source; their conditions may differ. Where a name gives a salt, the structure may show the parent alone.

Experimental for MnSOD, CuZnSOD: Brains were perfused, the cerebellum removed and the brain dissected from mice treated with i.p. ADR 20 mg/kg, or saline as a control, for 3 hours. Brains were placed in ice-cold 50 mM PBS, pH 7.4, containing the protease inhibitors 4 μg leupeptin, 4 μg pepstatin, and 5 μg aprotinin, washed and chopped in ice-cold PBS containing protease inhibitors. Tissues were homogenized with a Potter-Elvehjem glass homogenizer with a loose fitting Teflon® pestle, and protein concentration was determined by the Bradford assay (Bradford, 1976). Brain homogenate proteins were size-separated using denaturing sodium dodecyl sulfate-polyacrylamide gel electrophoresis (SDS-PAGE). Proteins (50 μg) were electrophoresed on 12.5% SDS-PAGE and transferred to a nitrocellulose membrane. The membrane was blocked for 1 hour at room temperature in blocking solution consisting of 5% non-fat dried milk, Tris-buffered saline (TBST; 10 mM Tris-HC, 150 mM NaCl, 0.05% Tween 20), pH 7.9. After blocking, the membrane was incubated overnight at 4° C. with primary antibodies against MnSOD (Upstate, Lake Placid, N.Y., USA), Cu/ZnSOD (Calbiochem, San Diego, Calif., USA) and β-actin (Sigma) in blocking solution. […] Immunoreactivities of the protein bands were detected by enhanced chemiluminescence autoradiography (ECL; Amersham Phamacia Biotech, Arlington Heights, Ill., USA) as described by the manufacturer.

For `COc1cccc2c1C(=O)c1c(O)c3c(c(O)c1C2=O)C[C@@](O)(C(=O)CO)C[C@@H]3O[C@H]1C[C@H](N)[C@H](O)[C@H](C)O1` [ADR, Doxorubicin hydrochloride], in the data set on MnSOD, CuZnSOD, the “CuZnSOD protein level in brain homogenates” value was “no change” and the “MnSOD protein level in brain homogenates” value is recorded as “no change”. In data set [1] (setting [5]), the “Bax level in brain mitochondria” value is “increased with a similar kinetics to that of p53; also recorded: increased at 3 and 6 hours; also recorded: increase in protein density”; the “p53 level in brain mitochondria” value was “increased in mitochondria early times after ADR treatment (3, 6, 24 hours), then declined at 48, and 72 hours; also recorded: significantly increased at 3, 6, and 24 hours; also recorded: increase in protein density”. Besides, in data set [1] (setting [6]), the “Bcl-xS level in brain mitochondria” value is “no significant changes” and the “MnSOD level in brain mitochondria” value is given as “no significant changes”. Besides, the “p53 and Bcl-xL complex in brain mitochondria (Bcl-xL bands after anti-p53 immunoprecipitation)” value with p53 and Bcl-xL complex was “specific increases of p53 and Bcl-xL; also recorded: increased at 3 hours”. The “TUNEL-positive apoptotic cells in cortex and hippocampus” value in data set [2] is listed as “increased number of apoptotic cells”. Besides, in the data set with TNF α [3], the “TNF α in neurons of cortex” value is listed as “clearly were increased” and the “TNF α in neurons of hippocampus” value is given as “clearly were increased”. The “TNF α levels in brain tissue homogenates” value in the data set on TNF α [4] is listed as “significantly increased”. Moreover, the “Expression of immunoprecipitated MnSOD protein, control vs ADR-treated brain mitochondria” value in the data set with MnSOD (immunoprecipitation with anti-MnSOD antibody) is “no difference in expression; also recorded: No significant difference”. Moreover, the “Nitrated MnSOD (nitrotyrosine in MnSOD) in brain mitochondria” value in the data set on MnSOD (wild-type mice, 3 hours after ADR 20 mg/kg) is “an increase of nitrated MnSOD; also recorded: significant increase in nitration of MnSOD; also recorded: significantly increased protein nitration”.
